Active and inactive are the calls of the source. The calls are words filed in the database; no cut-off is given here.
The molecules below were run on HepG2 (assay: Inhibition of cell migration in human HepG2 cells at 5.42 to 27.10 micromol/L incubated for 24 hrs by crystal violet staining based microscopic analysis). Conditions: dose 5.42-27.1 µmol/L.
Format: functional

| SMILES | inhibition |
| --- | --- |
| CCN(CC)c1nc2oc(C)c(C(=O)NN)c2c(=O)n1-c1ccc(C)cc1 | Active |

What follows are molecules tested on HepG2 (assay: Cytotoxicity against human HepG2 cells assessed as reduction in cell viability incubated for 48 hrs by CCK-8 assay). Conditions: HepG2, 48 h.

| SMILES | IC50 |
| --- | --- |
| CCCNc1nc2oc(C)c(C(=O)NN)c2c(=O)n1-c1cccc(C)c1 | 58.9 µM |
| CCN(CC)c1nc2oc(C)c(C(=O)NN)c2c(=O)n1-c1ccccc1 | 30.7 µM |
| CCCCNc1nc2oc(C)c(C(=O)NN)c2c(=O)n1-c1cccc(C)c1 | 73.9 µM |
| Cc1oc2nc(N3CCOCC3)n(-c3ccccc3)c(=O)c2c1C(=O)NN | 45.1 µM |
| CCCNc1nc2oc(C)c(C(=O)NN)c2c(=O)n1-c1ccc(C)cc1 | 84.1 µM |
| CCCCNc1nc2oc(C)c(C(=O)NNC(=O)c3cc4ccccc4oc3=O)c2c(=O)n1-c1ccccc1 | 8.74 µM |
| CCCN(CCC)c1nc2oc(C)c(C(=O)NNC(=O)c3cc4ccccc4oc3=O)c2c(=O)n1-c1ccc(C)cc1 | 22.2 µM |
| CNC(=O)c1cc(Oc2ccc(NC(=O)Nc3ccc(Cl)c(C(F)(F)F)c3)cc2)ccn1 [SORAFENIB] | 12.3 µM |
| CCCCNc1nc2oc(C)c(C(=O)NN)c2c(=O)n1-c1ccc(C)cc1 | > 100 µM |
| Cc1cccc(-n2c(N3CCOCC3)nc3oc(C)c(C(=O)NN)c3c2=O)c1 | 40.8 µM |
| CCCCNc1nc2oc(C)c(C(=O)NN)c2c(=O)n1-c1ccccc1 | > 100 µM |
| CCN(CC)c1nc2oc(C)c(C(=O)NN)c2c(=O)n1-c1ccc(C)cc1 | 17.2 µM |
| CCN(CC)c1nc2oc(C)c(C(=O)NN)c2c(=O)n1-c1cccc(C)c1 | 36.5 µM |
| CCN(CC)c1nc2oc(C)c(C(=O)NNC(=O)c3cc4ccccc4oc3=O)c2c(=O)n1-c1ccc(C)cc1 | > 100 µM |
| Cc1cccc(-n2c(N3CCOCC3)nc3oc(C)c(C(=O)NNC(=O)c4cc5ccccc5oc4=O)c3c2=O)c1 | 26.8 µM |
| CCCNc1nc2oc(C)c(C(=O)NN)c2c(=O)n1-c1ccccc1 | 69.3 µM |
| CCCNc1nc2oc(C)c(C(=O)NNC(=O)c3cc4ccccc4oc3=O)c2c(=O)n1-c1ccc(C)cc1 | 21.8 µM |
| CCCCNc1nc2oc(C)c(C(=O)NNC(=O)c3cc4ccccc4oc3=O)c2c(=O)n1-c1cccc(C)c1 | 13 µM |
| Cc1ccc(-n2c(N3CCOCC3)nc3oc(C)c(C(=O)NN)c3c2=O)cc1 | 55.9 µM |
| CCCN(CCC)c1nc2oc(C)c(C(=O)NN)c2c(=O)n1-c1ccccc1 | 17 µM |
| CCCCNc1nc2oc(C)c(C(=O)NNC(=O)c3cc4ccccc4oc3=O)c2c(=O)n1-c1ccc(C)cc1 | 14.5 µM |
| Cc1oc2nc(N3CCOCC3)n(-c3ccccc3)c(=O)c2c1C(=O)NNC(=O)c1cc2ccccc2oc1=O | 24.2 µM |
| CCN(CC)c1nc2oc(C)c(C(=O)NNC(=O)c3cc4ccccc4oc3=O)c2c(=O)n1-c1ccccc1 | 7.89 µM |
| CCCNc1nc2oc(C)c(C(=O)NNC(=O)c3cc4ccccc4oc3=O)c2c(=O)n1-c1ccccc1 | 7.72 µM |
| CCN(CC)c1nc2oc(C)c(C(=O)NNC(=O)c3cc4ccccc4oc3=O)c2c(=O)n1-c1cccc(C)c1 | 26.5 µM |
| CCCN(CCC)c1nc2oc(C)c(C(=O)NN)c2c(=O)n1-c1ccc(C)cc1 | 8.53 µM |
| Cc1ccc(-n2c(N3CCOCC3)nc3oc(C)c(C(=O)NNC(=O)c4cc5ccccc5oc4=O)c3c2=O)cc1 | 40 µM |
| CCCNc1nc2oc(C)c(C(=O)NNC(=O)c3cc4ccccc4oc3=O)c2c(=O)n1-c1cccc(C)c1 | 24.3 µM |
| CCCN(CCC)c1nc2oc(C)c(C(=O)NNC(=O)c3cc4ccccc4oc3=O)c2c(=O)n1-c1ccccc1 | 14.3 µM |

The molecules below were run on HepG2 (assay: Inhibition of cell invasion in human HepG2 cells at 5.42 to 27.10 micromol/L incubated for 24 hrs by crystal violet staining based microscopic analysis). Conditions: dose 5.42-27.1 µmol/L.
Format: functional

| SMILES | inhibition |
| --- | --- |
| CCN(CC)c1nc2oc(C)c(C(=O)NN)c2c(=O)n1-c1ccc(C)cc1 | Active |

— ChEMBL document CHEMBL5532702, “Coumarin-furo[2,3-d]pyrimidone hybrid molecules targeting human liver cancer cells: synthesis, anticancer effect, EGFR inhibition and molecular docking studies” (RSC Med Chem, 2024)
